Measured values from patent US10946019B2, “Nurr1:RXR activating compounds for simultaneous treatment of symptoms and pathology of Parkinson's disease” (priority 2015, dated 2021).

Tests used:
Nurr1:RXRα heterodimer = Nurr1:RXRα heterodimer (Homo sapiens (Human), UniProt P19793); assay: Nurr1:RXRα-dependent luciferase reporter (DR5-TK-Luc) transactivation assay; assay type: cell-based; conditions: SHSY-5Y cells co-transfected with human Nurr1, RXRα and DR5-TK-Luc
Protocol: The in vitro transactivation assay determined the capacity of the compounds of the invention to activate the Nurr1:RXR heterodimers. Naive SHSY-5Y cells were transiently co-transfected, using Lipofectamine 2000 (Invitrogen), with a plasmid expressing the human receptor Nurr1, a plasmid expressing the RXR human receptor (RXRα or RXRγ receptor) and a reporter plasmid DR5-TK-Luc. […] After incubation overnight, the expression of luciferase was measured (FIG. 1A).

[1] = Plasma and brain concentrations by LC-MS/MS after IP administration to mice; assay type: in vivo, mouse
Protocol: FIGS. 68A and 68B show the pharmacokinetic profile of XCT in blood plasma and in the brain of mice injected with this compound. […] Serial tail bleeds (n=3) were used for detection of the compound in plasma 1 and 2 hours after IP administration. Similarly, mice (n=3) were sacrificed 1 and 2 hours after IP administration and brains were dissected. The concentrations of the parent compound in plasma and brain were determined by LC-MS/MS.
The concentrations of the parent compound in plasma and brain were determined by LC/MSMS.
XCT0135908 was administered to mice to test its bioactivity.

c-jun = assay: Midbrain c-jun expression by qPCR after administration to mice; assay type: in vivo, mouse
Protocol: FIGS. 69A-69C show the brain penetration, half-life, and c-jun transcriptional activation of compound 3. […] Mice (n=5) were sacrificed 1, 2, 4, 8 and 24 hours after IP administration and brains were dissected 1, 2, 4, 8 and 24 hours post administration. The concentrations of the parent compound in plasma and brain were determined by LC/MSMS.
(§1) To assess the neuroprotective effect of compound 3, this compound was dosed to wt mice intraperitoneally (IP) at 10 mg/kg injections of compound 3 in Ethanol:PG:Saline 10:30:60. After 2 h and 4 h animals (n=3 per time point) were sacrificed, and their brains obtained. After extraction c-jun and tyrosine hydroxylase (TH) levels in brain extract were determined by qPCR (FIG. 1E, 1F).

[2] = test system: SHSY-5Y dopaminergic cells; assay: MPP+ induced cell death, MTT assay; assay type: cell-based, human; conditions: 12.5 μM, varying concentrations of MPP+
Protocol: MPP+, eradicates approximately 75% of the cells in 24 hours. […] Naive Neuro2A cells (FIG. 2A) or SH-SY5Y neuroblastoma cells FIG. 2B,C) were cultured in RPMI 1640, 10% fetal bovine serum at 37° C. Cells were pretreated with compound 3 for 12-24 h. Subsequent change of culture medium with addition of 0, 1, 2 and 4 mM MPP+ induced cell death. MTT assays determined the relative number of surviving cells FIG. 2D).
Such assays were performed, for instance, by adding compound 46 (12.5 μM) to human origin SHSY-5Y dopaminergic cells in which death was induced by the mitochondria complex I inhibitor MPP+ (1-methyl-4-phenylpyridinium), the active metabolite of MPTP (1-methyl-4-phenyl-1,2,3,6-tetrahydropyridine). […] Most of the MPP+-treated cells receiving vehicle died, while the few surviving cells remained attached to the plate but were rounded and had lost all projections. These morphological changes indicated impaired neuronal function. On the contrary, cells treated with compound 46 appeared healthy, flattened, well-attached, and their projections remained intact.
We examined the neuroprotective capability of Nurr1:RXRα heterodimer activation in SHSY-5Y cells where death was induced by either the oxidative stress related H2O2 or the mitochondria complex I inhibitor MPP+ (1-methyl-4-phenylpyridinium) (FIG. 72B). […] The protection conferred by compound 3 was Nurr1-dependent, since it was abrogated by knocking-down endogenous Nurr1 mRNA (FIGS. 1E and 72D). The neuroprotective effects of compound 3 extend to damage induced by the PD-associated mutation G2019S in the Leucine-Rich Repeat Kinase 2 (LRRK2) gene, the most common genetic defect associated with clinical PD (Tofaris et al. J. Neurosci. 26:3942-3950, 2006). Rat cortical neurons, co-transfected with CMV-GFP for identification, and CMVLRRK2-G2019S cDNAs show increased apoptosis as assessed by DAPI staining, compared to control neurons co-transfected with a LRRK2 wt cDNA.

Nur77:RXRα heterodimers = Nur77:RXRα heterodimers (Homo sapiens (Human), UniProt P19793); assay: Relative activation of Nurr1 and Nur77 in a luciferase reporter assay; assay type: cell-based; conditions: FIG. 67
Chain of Nur77:RXRα heterodimers (P19793 whole entry, looked up): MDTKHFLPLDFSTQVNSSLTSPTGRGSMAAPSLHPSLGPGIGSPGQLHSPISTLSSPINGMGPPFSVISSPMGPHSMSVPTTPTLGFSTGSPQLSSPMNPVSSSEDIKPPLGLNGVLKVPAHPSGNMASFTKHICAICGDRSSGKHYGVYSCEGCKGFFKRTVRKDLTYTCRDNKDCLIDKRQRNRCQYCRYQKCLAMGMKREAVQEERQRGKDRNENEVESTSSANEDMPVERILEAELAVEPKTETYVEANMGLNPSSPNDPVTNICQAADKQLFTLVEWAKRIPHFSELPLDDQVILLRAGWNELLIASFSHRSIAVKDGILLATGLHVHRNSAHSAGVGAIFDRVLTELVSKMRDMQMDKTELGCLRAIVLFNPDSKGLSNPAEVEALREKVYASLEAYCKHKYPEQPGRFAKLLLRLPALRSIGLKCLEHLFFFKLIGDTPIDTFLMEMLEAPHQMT
Chain of Nur77:RXRα heterodimers (P22736 whole entry partner, looked up): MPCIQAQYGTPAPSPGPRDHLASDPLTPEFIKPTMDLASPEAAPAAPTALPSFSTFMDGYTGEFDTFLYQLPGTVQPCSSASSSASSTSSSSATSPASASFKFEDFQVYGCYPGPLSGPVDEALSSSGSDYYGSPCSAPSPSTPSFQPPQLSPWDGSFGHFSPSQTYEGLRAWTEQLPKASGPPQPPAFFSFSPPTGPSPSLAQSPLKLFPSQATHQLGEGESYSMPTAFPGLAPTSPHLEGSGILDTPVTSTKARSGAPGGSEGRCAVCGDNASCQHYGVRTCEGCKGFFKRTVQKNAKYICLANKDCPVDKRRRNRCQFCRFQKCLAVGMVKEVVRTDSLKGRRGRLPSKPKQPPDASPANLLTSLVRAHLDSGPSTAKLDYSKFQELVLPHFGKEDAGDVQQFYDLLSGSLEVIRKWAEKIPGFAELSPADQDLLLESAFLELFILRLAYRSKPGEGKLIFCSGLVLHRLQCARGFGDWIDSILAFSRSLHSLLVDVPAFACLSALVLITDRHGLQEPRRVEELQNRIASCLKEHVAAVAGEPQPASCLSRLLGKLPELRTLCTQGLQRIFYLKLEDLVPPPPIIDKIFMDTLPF

[3] = test system: tyrosine hydroxylase (TH); assay: Midbrain tyrosine hydroxylase expression by qPCR after administration to mice; assay type: in vivo, mouse; conditions: mice, IP or intracerebroventricular 1 and 10 mg/kg, different time points
Protocol: as §1
Given the role of Nurr1:RXRα activation in the transcriptional regulation of DA biosynthesis genes, we tested whether compound 3 could increase DA levels in wt and ASYN transgenic mice (Tofaris et al. J. Neurosci. 26:3942-3950, 2006), which display reduced striatal DA levels after reaching adulthood. […] Aiming to model PD based on human genetic data, we also tested whether compound 3 could increase DA levels in ASYN transgenic mice. A single IP injection of compound 3 (10 mg/kg) was able increase striatal DA (t test p=0.01069) and DA metabolite levels in ASYN transgenics as well (FIG. 75C) in comparison to mice receiving vehicle.

Chain of Nurr1:RXRα heterodimer (P19793 whole entry): as the sequence (P19793 whole entry, looked up) above
Chain of Nurr1:RXRα heterodimer (P43354 whole entry partner): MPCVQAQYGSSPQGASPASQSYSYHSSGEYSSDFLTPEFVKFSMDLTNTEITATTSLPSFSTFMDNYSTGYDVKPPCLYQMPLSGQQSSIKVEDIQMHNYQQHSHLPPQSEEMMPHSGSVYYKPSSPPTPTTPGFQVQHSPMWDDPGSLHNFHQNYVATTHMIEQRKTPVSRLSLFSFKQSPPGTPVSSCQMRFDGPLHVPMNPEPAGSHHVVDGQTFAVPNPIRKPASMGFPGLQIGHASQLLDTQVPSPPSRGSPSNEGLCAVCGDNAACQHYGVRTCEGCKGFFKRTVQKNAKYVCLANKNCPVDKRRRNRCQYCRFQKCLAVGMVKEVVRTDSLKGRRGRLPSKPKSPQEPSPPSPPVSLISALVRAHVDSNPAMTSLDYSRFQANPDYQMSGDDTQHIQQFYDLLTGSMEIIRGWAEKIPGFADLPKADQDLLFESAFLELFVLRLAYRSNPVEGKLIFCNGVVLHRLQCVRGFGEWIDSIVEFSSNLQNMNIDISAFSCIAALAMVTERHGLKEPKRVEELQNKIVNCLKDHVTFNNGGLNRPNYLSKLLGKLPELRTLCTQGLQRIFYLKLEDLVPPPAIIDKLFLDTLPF

Compound: C=CCc1c(C)nc(-c2ccccc2)nc1Nc1ccc(C(=O)OCOC(=O)C(C)(C)C)cc1 [Example 30, pivaloyloxymethyl 4-(5-allyl-6-methyl-2-phenylpyrimidin-4-ylamino)benzoate]
- EC50 (Nurr1:RXRα heterodimer): 2000 nM

Compound: C=CCc1c(C)nc(-c2ccccc2)nc1Nc1ccc(C(=O)Oc2ccc(C[C@H](N)C(=O)O)cc2)cc1 [Example 31, (S)-2-(4-(4-(5-allyl-6-methyl-2-phenylpyrimidin-4-ylamino)benzoyloxy)phenyl)-1-carboxyethanaminium chloride]
- EC50 (Nurr1:RXRα heterodimer): 10000 nM

Compound: C=CCc1c(C)nc(-c2ccccc2)nc1Nc1ccc(C(=O)OCCCOc2ccc(C[C@H](N)C(=O)O)cc2)cc1 [Example 32, (S)-2-(4-(3-(4-(5-allyl-6-methyl-2-phenylpyrimidin-4-ylamino)benzoyloxy)propoxy)phenyl)-1-carboxyethanaminium chloride]
- EC50 (Nurr1:RXRα heterodimer): 5000 nM

Compound: Cc1nc(-c2ccccc2)nc2c1cc(C)n2-c1ccc(C(=O)O)cc1 [Example 45, 4-(4,6-dimethyl-2-phenyl-7H-pyrrolo[2,3-d]pyrimidin-7-yl)benzoic acid]
- EC50 (Nurr1:RXRα heterodimer): 2500 nM

Compound: Cc1nc(-c2ccccc2)nc2c1cc(C)n2-c1ccc(C(=O)O)cc1Br [Example 46, 3-bromo-4-(4,6-dimethyl-2-phenyl-7H-pyrrolo[2,3-d]pyrimidin-7-yl)benzoic acid]
- EC50 (Nurr1:RXRα heterodimer): 700 nM
- bioavailability ([1]; mouse, in vivo, ip): highly bioavailable
- brain penetration ([1]; mouse, in vivo, ip): capable of crossing the blood brain barrier
- c-jun transcriptional activation in the midbrain (c-jun; IP compound 46, qPCR 2 hours after administration): significant c-jun transcriptional activation
- cell survival against MPP+ [2]: significantly increased the survival of cells

Compound: C=CCc1c(C)nc(-c2ccccc2)nc1Nc1ccc(C(=O)O)cc1 [XCT0135908, reference compound]
- relative activation of Nur77:RXRα vs Nurr1:RXRα heterodimers (Nur77:RXRα heterodimers): preferentially activates Nur77:RXRα heterodimers and not Nurr1:RXRα heterodimers
- compound stability in vivo ([1]; mice, 1 and 2 hours after IP, plasma and brain homogenates): low compound stability
- brain penetration ([1]; mice, IP administration): minimal brain penetration
- Kp ([1]; mouse, brain homogenate / blood plasma, mice, 1 and 2 hours after IP XCT (printed 1 μg/kg), LC-MS/MS): < 0.03
- midbrain c-jun expression (c-jun; IP or intracerebroventricular 1 and 10 mg/kg, different time points): did not result in any expression alterations
- midbrain TH expression [3]: did not result in any expression alterations
